{"source": "patent US5710157A", "about": "“2,4-diamino-5,6-disubstituted-and 5,6,7-trisubstituted-5-deazapteridines as insecticides” (FMC Corporation, priority 1996, dated 1998)", "tested_on": "tobacco budworm (Heliothis virescens [Fabricius])", "test": "diet test: insect growth inhibition and mortality, tobacco budworm larvae, 5-day exposure", "type": "in vivo", "conditions": "second instar larvae", "protocol": "The 5-deazapteridine of the present invention were incorporated into an artificial diet for evaluation of insecticidal activity against the tobacco budworm (Heliothis virescens [Fabricius]).\nStock solutions of test chemical in dimethyl sulfoxide were prepared for each rate of application. The rates of application, expressed as the negative log of the molar concentration, and the corresponding concentrations of the stock solution prepared for each rate are shown below:\nOne hundred microliters of each of the stock solutions was manually stirred into 50 mL of a molten (65°-70° C.) wheat germ-based artificial diet. The 50 mL of molten diet containing the test chemical was poured evenly into twenty wells in the outer four rows of a twenty-five well, five row plastic tray. Each well in the tray was about 1 cm in depth, with an opening of 3 cm by 4 cm at the lip. Molten diet containing only dimethyl sulfoxide at the levels used in the test chemical-treated diet was poured into the five wells in the third row of the tray. Each tray therefore contained one test chemical at a single rate of application, together with an untreated control.\nSingle second instar tobacco budworm larvae were placed in each well. The larvae were selected at a stage of growth at which they uniformly weigh about 5 mg each. Upon completion of infestation, a sheet of clear plastic was heat-sealed over the top of the tray using a common household flat iron. The trays were held at 25° C. at 60% relative humidity for five days in a growth chamber. Lighting was set at 14 hours of light and 10 hours of darkness.\nAfter the 5-day exposure period, mortality counts were taken, and the surviving insects were weighed. From the weights of the surviving insects that fed on the treated diet as compared to those insects that fed on the untreated diet, the percent growth inhibition caused by each test chemical was determined. […] Where possible, the negative log of the concentration of the test chemical that provided 50% mortality (pLC50) was also determined.\nThe compounds of the present invention were tested in the diet test as insect growth inhibitors against the larvae of tobacco budworm (above)."}
{"smiles": "COc1ccc(OC)c(Cc2cnc3nc(N)nc(N)c3c2C)c1", "note": "[Compound 90, 2,4-diamino-5-methyl-6-(2,5-dimethoxyphenylmethyl)-5-deazapteridine]", "values": [{"measurement": "IC50", "setting": "Heliothis virescens, 120 h, artificial diet, linear regression, read-out: pI50: negative log of the concentration that provides 50% growth inhibition (converted)", "value": 1000, "unit": "nM"}, {"measurement": "Percent Growth Inhibition", "setting": "rate of application 4 (negative log of molar concentration in diet)", "value": 95, "unit": "%"}, {"measurement": "Percent Growth Inhibition", "setting": "rate of application 5 (negative log of molar concentration in diet)", "value": 87, "unit": "%"}, {"measurement": "Percent Growth Inhibition", "setting": "rate of application 6 (negative log of molar concentration in diet)", "value": 41, "unit": "%"}, {"measurement": "Percent Growth Inhibition", "setting": "rate of application 7 (negative log of molar concentration in diet)", "value": 26, "unit": "%"}]}
